Measurements from paper PMC10354055, “An optimized Nurr1 agonist provides disease-modifying effects in Parkinson’s disease models” (Nature Communications, 2023).
“And” between values parts separate entries of the source, which are not always exact repeats. Equal values may be shown once. Read-outs that look alike come from different tables or passages of the source.

Experiments:
N27-A cells [1] = settings: for LDH release (%): Fig. 2b, MPP+, CQ 100 µM, 4A7C-301 1 µM; for MPP+-induced cytotoxicity (in words): N27-A and MN9D cells, dose-dependent
Protocol: SK-N-BE(2)C human neuroblastoma, BV2 mouse microglia (ATCC), HeLa and MN9D cell lines were cultured in Dulbecco’s Modified Eagle Medium (DMEM) supplemented with 10% fetal bovine serum (FBS) and 100 U /ml penicillin and 100 μg /ml streptomycin. The murine MN9D dopaminergic cell line was kindly provided by Drs. Michael Zigmond and Juliann Jaumotte from the University of Pittsburgh. The N27-A rat dopaminergic cell line was kindly provided by Dr. Curt Freed from the University of Colorado School of Medicine. […] For transactivity assay, SK-N-BE(2)C and N27-A cell lines were transfected with pCMV-fNurr1, pGAL-Nurr1(LBD), pGAL-Nor1(LBD) or pGAL-Nur77(LBD) and reporter construct (p4xNL3-Luc for fNurr1 or p8xUAS-Luc for LBD constructs). pRSV-β-gal was co-transfected as an internal control. Cells were lysed in a lysis buffer (25 mM Tris-phosphate (pH 7.8), 2 mM DTT, 2 mM DCTA (1,2-diaminocyclohexane-N,N,N′,N′-tetraacetic acid), 10% glycerol, and 1% Triton X-100) 24 h after transfection, followed by adding firefly luciferase substrate for luminescence detection measured by a luminometer plate reader (SpectraMax®; Molecular device). Nurr1 transactivity was normalized to β-galactosidase activity. […] For Nurr1 stability determination, MN9D cells were incubated with MPP^+ (0.5 mM) for 2, 4, 8, 16, 24, and 32 h, or were transduced with lentivirus expressing GFP only or αSyn (wild-type or A53T) then harvested 24, 48 and 72 h after transduction. For autophagolysosome (APL) formation assay, HeLa and N27-A cells were transfected with mRFP-GFP-LC3 (Addgene) using Lipofectamine 2000 (Invitrogen). The medium was changed with starvation medium (Earle’s Balanced Salt Solution; EBSS) 24 h after transfection for autophagy induction.
Cells were transfected with Nurr1 subcloned into pcDNA3.1 vector[23] for Nurr1 overexpression (OE). […] Nurr1 OE or KD by transfection was analyzed by Western blot.
Cellular oxidative stress was detected using the DCFDA Cellular ROS Assay Kit (Abcam) according to the manufacturer’s protocol. Briefly, cells seeded in black clear bottom 96 well plate were stained with DCFDA solution (20 µM) for 45 min at 37 °C. […] Cytotoxicity was determined by measuring lactate dehydrogenase (LDH) release into the culture medium using a LDH cytotoxicity detection kit (Roche)[33]. Absorbance was measured at 490 nm with a microplate reader and cytotoxicity was calculated as a percentage (%) relative to 1% TritonX-100 control. Cell viability was determined using 3-(4,5-dimethylthiazol-2-yl)-2,5-diphenyltetrazolium bromide (MTT) as previously described. Briefly, cells were incubated with 5 mg/ml of MTT (Sigma-Aldrich) solution for 3.5 h at 37 °C. MTT formazan crystals were dissolved in 10 times the volume of MTT solvent (4 mM HCl and 0.1% Nonidet P-40 in isopropanol) and the absorbance from the generated blue formazan was measured at 570 nm after 15 min incubation at room temperature. Cell viability was calculated as a percentage (%) of MTT reduction relative to vehicle control.

HeLa cells = experiment: Lysosomal pH detection, LysoSensor, HeLa cells; format: cell-based; settings: for Lysosomal pH: Supplementary Figure S7d, individual replicates
Protocol: Lysosomal pH was detected as previously described. Briefly, after incubation in EBSS containing BafA1 (10 nM), CQ (20 µM), or 4A7C-301 (1 µM) for 6 h, HeLa and N27-A cells were treated with LysoSensor™ Yellow/Blue DND-160 (5 µM; Life Technology) for 45 min, followed by 2 washes in HEPES buffer (Gibco). Fluorescence images at excitation/emission wavelengths of 360/460 nm and 470/525 nm were taken immediately using a 400 nm dichroic mirror (KEYENCE). The ratio of fluorescence intensities (F360/470) were measured and calculated manually using ImageJ for each cell. The average pH from measuring 5 cells from each of three wells for each treatment group in both HeLa and N27-A cells was calculated by fitting the F360/470 values to a plotted pH calibration curve with KCl/NaCl buffered from pH 3.5 to 7.0 using GraphPad Prism (Version 8.0.2).

N27-A cells [2] = experiment: Cell viability, MTT reduction, MPP+-treated N27-A cells; format: cell-based, rat; settings: Fig. 2a, CQ 100 µM, 4A7C-301 1 µM
[3] = tested on: AAV-αSyn-induced male mice; experiment: Pole test, AAV-αSyn-induced PD model mice; format: in vivo, mouse; settings: αSynWT and αSynA53T mice; CQ 40, 4A7C-301 5 mg/kg/day i.p.
Source text: Adeno-associated viruses (AAVs) expressing GFP only or αSyn (wild-type or A53T) were kindly provided by Dr. Yoon Seong Kim from the University of Central Florida. Recombinant AAV vectors were produced using modified pAAV-IRES-hrGFP (Agilent) to express wild-type and mutant human αSyn under control of the CMV promoter. Viral particles (AAV2) were produced at the University of Iowa Viral Vector Core according to standard operating procedures (https://medicine.uiowa.edu/vectorcore/). […] AAV vectors were delivered into the substantia nigra unilaterally by stereotaxic surgery.
Mice were trained to descend a vertical metal rod wrapped with rough tape (80 cm high, 12 mm diameter) once per day for 2 days, and then the baseline was measured before the pole test (3 days before the MPTP injection or the first pole test at week 2). Mice were placed head-upward on the pole and total descent time was recorded.

Nurr1-LBD = Nurr1-LBD (Homo sapiens, UniProt P43354); experiment: [3H]-CQ radioligand competition binding assay; settings: for % of Specific binding / IC50: Fig. 1h; for IC50: competition with [3H]-CQ
Protocol: Saturation and competition assays were performed as previously described. For saturation assay, 0.2 µM of Nurr1-LBD and 125-10,000 nM of [^3H]-CQ were incubated in binding buffer (20 mM sodium acetate buffer (pH 5.2)) at 4 °C overnight. […] Assay mixtures were applied to GF/B filters (Brandel Inc.) to capture Nurr1-LBD bounded ligands. […] All graphs and IC50 values were generated using the non-linear regression program in GraphPad Prism version 8.0.2.

Sequence of Nurr1-LBD (P43354 360-595 limits assumed, species assumed): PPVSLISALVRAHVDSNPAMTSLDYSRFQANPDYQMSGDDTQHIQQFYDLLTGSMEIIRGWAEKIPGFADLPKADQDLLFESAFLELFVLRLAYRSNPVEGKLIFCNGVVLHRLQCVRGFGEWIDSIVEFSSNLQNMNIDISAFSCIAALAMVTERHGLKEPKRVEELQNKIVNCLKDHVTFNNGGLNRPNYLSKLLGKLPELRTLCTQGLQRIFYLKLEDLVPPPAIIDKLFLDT

CCN1CCN(c2cc(N3CCN(CC)CC3)nc(NCCNc3ccnc4cc(Cl)ccc34)n2)CC1 [4A7C-301, N^1-(4,6-bis(4-ethylpiperazin-1-yl)pyrimidin-2-yl)-N^2-(7-chloroquinolin-4-yl)ethane-1,2-diamine]
LDH release (%) (N27-A cells [1]; Control): 36.8915% and 36.4082% and 36.6047% and 36.8443%
LDH release (%) (N27-A cells [1]; Nurr1 KD): 55.7866% and 55.7395% and 55.4251% and 55.8102%
LDH release (%) (N27-A cells [1]; Nurr1 OE): 22.7388% and 23.725% and 22.6956% and 22.8802%
MPP+-induced cytotoxicity (in words) (N27-A cells [1]): significantly decreased
concentration of maximal efficiency, times lower than CQ (N27-A cells [1]; N27-A cells, MPP+-induced cytotoxicity): ~ 20 times
Lysosomal pH (HeLa cells): 4.318 and 4.4486 and 4.774 and 4.612 and 4.807 and 4.905 and 4.677 and 3.797 and 4.742 and 4.872 and 3.764 and 3.96 and 3.927 and 3.536
MTT reduction (%) (N27-A cells [2]; Control): 65.2632% and 62.1053% and 64.2105% and 61.0526%
MTT reduction (%) (N27-A cells [2]; Nurr1 KD): 30.9278% and 29.8969% and 34.0206%
MTT reduction (%) (N27-A cells [2]; Nurr1 OE): 86.5979% and 95.8763% and 87.6289% and 83.5052%
motor deficits, pole test (in words) [3]: improved motor deficits
% of Specific binding (Nurr1-LBD; competitor conc. 0.0001 (µM)): 97.5500% and 87.3600% and 114.0900%
% of Specific binding (Nurr1-LBD; competitor conc. 0.001 (µM)): 93.3315% and 98.5361% and 111.1323%
% of Specific binding (Nurr1-LBD; competitor conc. 0.01 (µM)): 98.5241% and 100.1201% and 98.1018%
% of Specific binding (Nurr1-LBD; competitor conc. 0.1 (µM)): 94.8655% and 104.0393% and 99.1513%
% of Specific binding (Nurr1-LBD; competitor conc. 1 (µM)): 96.7105% and 99.4183% and 101.5113%
% of Specific binding (Nurr1-LBD; competitor conc. 10 (µM)): 93.5241% and 103.1201% and 98.1018%
% of Specific binding (Nurr1-LBD; competitor conc. 100 (µM)): 102.0642% and 94.9839% and 98.3253%
% of Specific binding (Nurr1-LBD; competitor conc. 1000 (µM)): 95.6857% and 99.8470% and 98.1514%
% of Specific binding (Nurr1-LBD; competitor conc. 10000 (µM)): 97.6484% and 92.6051% and 102.8033%
% of Specific binding (Nurr1-LBD; competitor conc. 100000 (µM)): 94.7542% and 97.7292% and 100.6669%
% of Specific binding (Nurr1-LBD; competitor conc. 1000000 (µM)): 94.8500% and 98.0088% and 99.1887%
IC50 (Nurr1-LBD): 0.0482 µM and 0.05 µM
binding affinity for Nurr1-LBD relative to CQ (Nurr1-LBD; from radioligand and TR-FRET IC50s): 20 fold and ~ 20 fold

CCN(CC)CCCC(C)Nc1ccnc2cc(Cl)ccc12 (stereo not drawn) [CQ, chloroquine]
LDH release (%) (N27-A cells [1]; Control): 38.0191% and 38.0584% and 38.4906% and 38.2156%
LDH release (%) (N27-A cells [1]; Nurr1 KD): 55.7041% and 55.6609% and 55.7395% and 55.7788%
LDH release (%) (N27-A cells [1]; Nurr1 OE): 24% and 23.9568% and 23.9529% and 23.9254%
MPP+-induced cytotoxicity (in words) (N27-A cells [1]): significantly decreased
lysosomal pH (in words) (HeLa cells; HeLa, BafA1 10 nM, CQ 20 µM, 4A7C-301 1 µM): significantly increased
Lysosomal pH (HeLa cells): 5.589 and 4.742 and 6.013 and 6.078 and 6.11 and 5.947 and 5.068 and 6.501 and 6.208 and 6.469 and 5.524 and 5.98 and 6.534 and 5.556
MTT reduction (%) (N27-A cells [2]; Control): 57.8947% and 66.3158% and 61.0526% and 65.2632%
MTT reduction (%) (N27-A cells [2]; Nurr1 KD): 34.0206% and 28.866% and 35.0515% and 27.8351%
MTT reduction (%) (N27-A cells [2]; Nurr1 OE): 79.3814% and 82.4742% and 84.5361% and 87.6289%
motor deficits, pole test (in words) [3]: partial recovery
% of Specific binding (Nurr1-LBD; competitor conc. 0.0001 (µM)): 118.1264% and 84.3678% and 87.5058%
% of Specific binding (Nurr1-LBD; competitor conc. 0.001 (µM)): 105.0129% and 88.1206% and 97.7170%
% of Specific binding (Nurr1-LBD; competitor conc. 0.01 (µM)): 86.0400% and 103.1100% and 99.0600%
% of Specific binding (Nurr1-LBD; competitor conc. 0.1 (µM)): 92.2329% and 89.2060% and 101.4170%
% of Specific binding (Nurr1-LBD; competitor conc. 1 (µM)): 91.1049% and 87.6783% and 85.5188%
% of Specific binding (Nurr1-LBD; competitor conc. 10 (µM)): 73.9055% and 78.9516% and 86.9689%
% of Specific binding (Nurr1-LBD; competitor conc. 100 (µM)): 60.9070% and 71.4020% and 69.8520%
% of Specific binding (Nurr1-LBD; competitor conc. 1000 (µM)): 61.7083% and 49.9850% and 61.0054%
% of Specific binding (Nurr1-LBD; competitor conc. 10000 (µM)): 29.9520% and 33.4512% and 36.5796%
% of Specific binding (Nurr1-LBD; competitor conc. 100000 (µM)): 19.5396% and 23.9835% and 21.7371%
% of Specific binding (Nurr1-LBD; competitor conc. 1000000 (µM)): 14.1307% and 7.3236% and 10.4343%
IC50 (Nurr1-LBD): 1.03 µM and 1 µM
